Test system: patients with chronic low back pain (LBP) and Modic changes on MRI
Test: Double-blinded, randomized, placebo-controlled clinical trial of a single intravenous infusion of 5 mg zoledronic acid
Assay type: in vivo, human
Settings: for Intensity of leg pain, mean (SD) original value / Intensity of LBP, mean (SD) original value / Intensity of LBP, mean (SD) change: 10-cm VAS; for Fingers-to-floor, between-group difference, adjusted (ANCOVA) / Fingers-to-floor, between-group difference, unadjusted / Intensity of LBP, between-group difference, adjusted analysis (ANCOVA, baseline value) / Intensity of LBP, between-group difference, unadjusted analysis / Intensity of leg pain, between-group difference, adjusted (ANCOVA) / Intensity of leg pain, between-group difference, unadjusted / Oswestry disability index, between-group difference, adjusted (ANCOVA) / Oswestry disability index, between-group difference, unadjusted / RAND-36 mental component, between-group difference (95% CI), adjusted (ANCOVA) / RAND-36 mental component, between-group difference (95% CI), unadjusted / RAND-36 physical component, between-group difference (95% CI), adjusted (ANCOVA) / RAND-36 physical component, between-group difference (95% CI), unadjusted / Sidebending to left, between-group difference, adjusted (ANCOVA) / Sidebending to left, between-group difference, unadjusted / Sidebending to right, between-group difference, adjusted (ANCOVA) / Sidebending to right, between-group difference, unadjusted / Total RAND-36, between-group difference (95% CI), adjusted (ANCOVA) / Total RAND-36, between-group difference (95% CI), unadjusted: ZA vs placebo
Protocol: A study was performed to evaluate the efficacy of a single intravenous infusion of 5 mg zoledronic acid in comparison with intravenous placebo infusion among patients with chronic low back pain (LBP) and Modic changes on MRI. This study was a double-blinded, randomized, placebo-controlled clinical trial in patients with low back pain (LBP).
Patients were excluded from the study if they had renal impairment with reduced creatinine clearance defined as an estimated glomerular filtration rate (eGFR) below 40 ml/min, hypocalcemia, known hypersensitivity to zoledronic acid or other bisphosphonates or ingredients of the infusion product, the presence of red flags, nerve root entrapment or willingness for early retirement. Premenopausal women of childbearing potential were also excluded. Blood samples were taken prior to the infusion to assess the serum concentration of calcium and creatinine. The clinical examination included medical history and clinical assessment of lumbar flexibility, tendon signs, and motor and sensory testing.
After confirmation of eligibility patients were randomized to receive a single intravenous infusion of 5 mg zoledronic acid (n=20) or 100 ml saline as placebo (n=20) over a 15-minute period. Information on use of the concomitant medication and hospital admissions were recorded. Blood samples were taken for the assessment of safety, inflammatory mediators and markers of bone turnover at baseline, at one month and at one year.
Clinical assessments were performed at 14 days before enrollment (screening visit), and at follow-up visits at one month and one year after the infusion. The primary outcome was the change in the intensity of LBP on VAS. Secondary outcomes included leg pain intensity, ODI, health-related quality of life assessed with RAND-36, patient-reported sick leaves and lumbar flexibility. These outcome measures were assessed at baseline and at each follow-up. Lumbar flexibility was evaluated using the fingers-to-floor and trunk side bending measures (in cm). The percentage of patients undergoing a 20% relative improvement, the proportion of patients reaching a VAS score of 40 mm or less using 100 mm scale in the primary outcome, and patient acceptable symptom state (PASS) were also assessed. Pain medication use was inquired about during the follow-up visits.

O=P(O)(O)C(O)(Cn1ccnc1)P(=O)(O)O [ZA, zoledronic acid]
Fingers-to-floor, mean (SD) original value (1 mo.): 17 (17) cm | Oswestry disability index, mean (SD) original value (1 mo.): 24 (10) % | RAND-36 mental component, mean (SD) original value (1 mo.): 50 (9) | RAND-36 physical component, mean (SD) original value (1 mo.): 52 (9) | Sidebending to left, mean (SD) original value (1 mo.): 16.1 (5.3) cm | Sidebending to right, mean (SD) original value (1 mo.): 15.7 (5.9) cm | Total RAND-36, mean (SD) original value (1 mo.): 51 (8) | Intensity of leg pain, mean (SD) original value (1 mo.): 2.0 (2.3) | Intensity of LBP, mean (SD) original value (1 mo. after 5 mg IV): 4.3 (2.3) | Intensity of leg pain, mean (SD) original value (12 mos.): 2.1 (2.8) | Intensity of LBP, mean (SD) original value (12 mos. after 5 mg IV): 3.8 (2.5) | Intensity of leg pain, mean (SD) original value (baseline): 3.0 (3.1) | Intensity of LBP, mean (SD) change (baseline to 1 mo.): −2.2 (2.7) | Intensity of LBP, mean (SD) change (baseline to 12 mos.): −2.8 (2.9) | Intensity of LBP, mean (SD) original value (baseline, n=20): 6.6 (1.4) | Fingers-to-floor, mean (SD) original value (12 mos.): 16 (16) cm | Oswestry disability index, mean (SD) original value (12 mos.): 25 (13) % | RAND-36 mental component, mean (SD) original value (12 mos.): 51 (9) | RAND-36 physical component, mean (SD) original value (12 mos.): 52 (8) | Sidebending to left, mean (SD) original value (12 mos.): 16.2 (6.7) cm | Sidebending to right, mean (SD) original value (12 mos.): 15.7 (5.6) cm | Total RAND-36, mean (SD) original value (12 mos.): 51 (8) | Fingers-to-floor, between-group difference, adjusted (ANCOVA) (1 mo.): 3.6 cm | Fingers-to-floor, between-group difference, unadjusted (1 mo.): 5.0 cm | Intensity of LBP, between-group difference, adjusted analysis (ANCOVA, baseline value) (1 mo.): 1.4 | Intensity of LBP, between-group difference, unadjusted analysis (1 mo.): 1.3 | Intensity of leg pain, between-group difference, adjusted (ANCOVA) (1 mo.): 0.8 | Intensity of leg pain, between-group difference, unadjusted (1 mo.): 0.8 | Oswestry disability index, between-group difference, adjusted (ANCOVA) (1 mo.): 6.0% | Oswestry disability index, between-group difference, unadjusted (1 mo.): 4.3% | RAND-36 mental component, between-group difference (95% CI), adjusted (ANCOVA) (1 mo.): 1.6 (−2 to 5) | RAND-36 mental component, between-group difference (95% CI), unadjusted (1 mo.): 2.0 (−2 to 6) | RAND-36 physical component, between-group difference (95% CI), adjusted (ANCOVA) (1 mo.): 1.3 (−3 to 6) | RAND-36 physical component, between-group difference (95% CI), unadjusted (1 mo.): 0.3 (−4 to 5) | Sidebending to left, between-group difference, adjusted (ANCOVA) (1 mo.): −1.7 cm | Sidebending to left, between-group difference, unadjusted (1 mo.): −1.5 cm | Sidebending to right, between-group difference, adjusted (ANCOVA) (1 mo.): −2.0 cm | Sidebending to right, between-group difference, unadjusted (1 mo.): −2.0 cm | Total RAND-36, between-group difference (95% CI), adjusted (ANCOVA) (1 mo.): 1.3 (−3 to 5) | Total RAND-36, between-group difference (95% CI), unadjusted (1 mo.): 1.2 (−3 to 5) | Fingers-to-floor, between-group difference, adjusted (ANCOVA) (12 mos.): 5.3 cm | Fingers-to-floor, between-group difference, unadjusted (12 mos.): 7.1 cm | Intensity of LBP, between-group difference, adjusted analysis (ANCOVA, baseline value) (12 mos.): 0.7 | Intensity of LBP, between-group difference, unadjusted analysis (12 mos.): 0.6 | Intensity of leg pain, between-group difference, adjusted (ANCOVA) (12 mos.): 0.5 | Intensity of leg pain, between-group difference, unadjusted (12 mos.): 0.6 | Oswestry disability index, between-group difference, adjusted (ANCOVA) (12 mos.): 5.1% | Oswestry disability index, between-group difference, unadjusted (12 mos.): 3.1% | RAND-36 mental component, between-group difference (95% CI), adjusted (ANCOVA) (12 mos.): 2.7 (−2 to 7) | RAND-36 mental component, between-group difference (95% CI), unadjusted (12 mos.): 3.5 (−2 to 9) | RAND-36 physical component, between-group difference (95% CI), adjusted (ANCOVA) (12 mos.): 2.1 (−3 to 7) | RAND-36 physical component, between-group difference (95% CI), unadjusted (12 mos.): 0.7 (−5 to 6) | Sidebending to left, between-group difference, adjusted (ANCOVA) (12 mos.): −1.0 cm | Sidebending to left, between-group difference, unadjusted (12 mos.): −0.7 cm | Sidebending to right, between-group difference, adjusted (ANCOVA) (12 mos.): −1.7 cm | Sidebending to right, between-group difference, unadjusted (12 mos.): −1.6 cm | Total RAND-36, between-group difference (95% CI), adjusted (ANCOVA) (12 mos.): 2.2 (−2 to 7) | Total RAND-36, between-group difference (95% CI), unadjusted (12 mos.): 2.1 (−3 to 7) | Patients using NSAIDs (self-reported) (at one year, placebo 60%): 20% | Fingers-to-floor, mean (SD) original value (baseline): 23 (19) cm | Oswestry disability index, mean (SD) original value (baseline): 30 (11) % | RAND-36 mental component, mean (SD) original value (baseline): 49 (9) | RAND-36 physical component, mean (SD) original value (baseline): 52 (8) | Sidebending to left, mean (SD) original value (baseline): 15.0 (5.4) cm | Sidebending to right, mean (SD) original value (baseline): 14.1 (4.9) cm | Total RAND-36, mean (SD) original value (baseline): 50 (8) | Fingers-to-floor, mean (SD) change (baseline to 1 mo.): −5.1 (20) cm | Intensity of leg pain, mean (SD) change (baseline to 1 mo.): −0.6 (2.4) | Oswestry disability index, mean (SD) change (baseline to 1 mo.): −5.9 (11) % | RAND-36 mental component, mean change (baseline to 1 mo.): 1.0 | RAND-36 physical component, mean change (baseline to 1 mo.): 0.1 | Sidebending to left, mean (SD) change (baseline to 1 mo.): 1.1 (3.0) cm | Sidebending to right, mean (SD) change (baseline to 1 mo.): 1.5 (4.7) cm | Total RAND-36, mean change (baseline to 1 mo.): 0.6 | Fingers-to-floor, mean (SD) change (baseline to 12 mos.): −6.3 (23) cm | Intensity of leg pain, mean (SD) change (baseline to 12 mos.): −0.9 (3.4) | Oswestry disability index, mean (SD) change (baseline to 12 mos.): −5.0 (15) % | RAND-36 mental component, mean change (baseline to 12 mos.): 1.8 | RAND-36 physical component, mean change (baseline to 12 mos.): 0.3 | Sidebending to left, mean (SD) change (baseline to 12 mos.): 1.2 (5.3) cm | Sidebending to right, mean (SD) change (baseline to 12 mos.): 1.6 (4.8) cm | Total RAND-36, mean change (baseline to 12 mos.): 1.0 | Proportion of patients reaching patient acceptable symptom state (PASS) (one month, placebo 20% (p=0.096)): 50% | Proportion of patients with at least 20% improvement in intensity of LBP (one month, placebo 25% (p=0.105)): 55% | Pain reduction, VAS change from baseline (patients with Baseline VAS <6): −0.1 cm | Pain reduction, VAS change from baseline (patients with Baseline VAS ≥6 and <7): −2.3 cm | Pain reduction, VAS change from baseline (patients with Baseline VAS ≥7): −3.4 cm | Mean reduction in pain from baseline (patients with baseline pain intensity <6): 0.1 | Mean reduction in pain from baseline (patients with baseline pain intensity ≥7): 3.4

— patent US20180256611A1, “BISPHOSPHONATES FOR INCREASING THE TYPE 2 CHARACTER OF A MODIC CHANGE” (ANTECIP BIOVENTURES II LLC, priority 2017, published 2018)
